The numbers were not newly measured in patent US20200367542A1, “AROMA COMPOSITION” (SYMRISE AG, priority 2017, published 2020), which cites them from elsewhere.

For data set [1] the following is noted: J. Chem. Senses 1979, 4(1), 35-47.
For data set [2] the following is noted: purity>90%, in soft drinks.

On to `COc1ccc(CCC(=O)c2ccccc2O)cc1O` [dihydrochalcone (2)], for which, in data set [1], the “Taste described in the publication” value was “intensively sweet tasting”.

Turning to `C=C1C[C@@]23CC[C@H]4[C@@](C)(CCC[C@@]4(C)C(=O)O[C@@H]4O[C@H](CO)[C@@H](O)[C@H](O)[C@H]4O)[C@@H]2CC[C@]1(O[C@@H]1O[C@H](CO)[C@@H](O)[C@H](O[C@@H]2O[C@H](CO)[C@@H](O)[C@H](O)[C@H]2O)[C@H]1O[C@@H]1O[C@H](CO)[C@@H](O)[C@H](O)[C@H]1O)C3` [rebaudioside A], the “Concentration to achieve a sweetness corresponding to a concentration of sucrose of 10% by weight” value in data set [2] is on record as 400-600 ppm. For `COc1ccc(CCC(=O)c2c(O)cccc2O)cc1O` [dihydrochalcone (3)], the “Taste described in the publication” value in data set [1] is given as “tasteless”.
